{"source": "patent US10821160B2", "about": "“L-asparaginase variants and fusion proteins with reduced L-glutaminase activity and enhanced stability” (priority 2016, dated 2020)", "key": {"[1]": {"biological_target": "T1, Erwinia chrysanthemi L-asparaginase, wild type (ErA-WT), SEQ ID NO:1 (Dickeya chrysanthemi, UniProt P06608)", "T1 construct": "lacking the first 21-amino acid residue signal peptide; His6-SUMO (yeast Smt3p) (N, cleaved yes); made in house; host or cells: E. coli BL21(DE3) C41", "test": "L-asparaginase activity, continuous spectroscopic enzyme-coupled assay", "type": "biochemical", "conditions": "37° C", "experimental": "(§1) In brief, the assay measures the production of L-aspartate through the 1:1 oxidation of reduced NADH. The conversion of NADH to NAD^+ was measured spectrophotometrically as a decrease in absorbance at 340 nm at 37° C. All measurements were taken in triplicate. Rates were fit to the Michaelis-Menten equation using SIGMAPLOT software (Systat Software Inc).\n(§2) The parameters that define the asparagine-depleting power of such enzyme drugs are of significance. […] Enzymologists often combine these two parameters into a single value (kcat/Km) that is thought to represent the efficiency of the enzyme.\n(§3) Using colorimetric enzyme-coupled assays, L-asparaginase and L-glutaminase activity of the enzymes was determined."}, "[2]": {"biological_target": "Erwinia chrysanthemi L-asparaginase (ErA) variant E63Q (ErA-E63Q), SEQ ID NO:2 (Dickeya chrysanthemi, UniProt P06608, E84Q)", "conditions": "37° C", "experimental": "as §1, with “L-asparaginase activity was determined using a continuous spectroscopic enzyme-coupled assay as previously described (Schalk, et al. (2014) J. Biol. Chem. 289:33175-33186). In brief,” for “In brief,”\nas §2, §3"}, "[3]": {"biological_target": "T2, Erwinia chrysanthemi L-asparaginase (ErA) variant E63Q-S254N (ErA-DM1), SEQ ID NO:3 (Dickeya chrysanthemi, UniProt P06608, E84Q/S275N)", "T2 construct": "lacking the first 21-amino acid residue signal peptide; His6-SUMO (yeast Smt3p) (N, cleaved yes); made in house; host or cells: E. coli BL21(DE3) C41", "type": "biochemical", "method": "(§6) L-asparaginase activity was determined using a continuous spectroscopic enzyme-coupled assay as previously described (Schalk, et al. (2014) J. Biol. Chem. 289:33175-33186). In brief, the assay measures the production of L-aspartate through the 1:1 oxidation of reduced NADH. The conversion of NADH to NAD^+ was measured spectrophotometrically as a decrease in absorbance at 340 nm at 37° C. All measurements were taken in triplicate. Rates were fit to the Michaelis-Menten equation using SIGMAPLOT software (Systat Software Inc)."}, "[4]": {"biological_target": "T3, Erwinia chrysanthemi L-asparaginase (ErA) variant E63Q-S254Q (ErA-DM3), SEQ ID NO:5 (Dickeya chrysanthemi, UniProt P06608, E84Q/S275Q)", "T3 construct": "lacking the first 21-amino acid residue signal peptide; His6-SUMO (yeast Smt3p) (N, cleaved yes); made in house; host or cells: E. coli BL21(DE3) C41", "type": "biochemical", "conditions": "37° C", "experimental": "as §1, with “L-asparaginase activity was determined using a continuous spectroscopic enzyme-coupled assay as previously described (Schalk, et al. (2014) J. Biol. Chem. 289:33175-33186). In brief,” for “In brief,”\nas §2, §3"}, "[5]": {"biological_target": "T4, Erwinia chrysanthemi L-asparaginase (ErA) variant A31I-E63Q-S254N (ErA-TM1), SEQ ID NO:7 (Dickeya chrysanthemi, UniProt P06608, A52I/E84Q/S275N)", "T4 construct": "lacking the first 21-amino acid residue signal peptide; His6-SUMO (yeast Smt3p) (N, cleaved yes); made in house; host or cells: E. coli BL21(DE3) C41", "type": "biochemical", "conditions": "37° C", "method": "as §6"}, "[6]": {"biological_target": "T5, Erwinia chrysanthemi L-asparaginase (ErA) variant A31I-E63Q (ErA-DM2), SEQ ID NO:4 (Dickeya chrysanthemi, UniProt P06608, A52I/E84Q)", "T5 construct": "lacking the first 21-amino acid residue signal peptide; His6-SUMO (yeast Smt3p) (N, cleaved yes); made in house; host or cells: E. coli BL21(DE3) C41", "type": "biochemical", "conditions": "37° C", "experimental": "as §1, with “L-asparaginase activity was determined using a continuous spectroscopic enzyme-coupled assay as previously described (Schalk, et al. (2014) J. Biol. Chem. 289:33175-33186). In brief,” for “In brief,”\n(§4) Using colorimetric enzyme-coupled assays, L-asparaginase and L-glutaminase activity of the enzymes was determined. […] Seventeen of the 18 mutants had reduced L-glutaminase activity (Table 7). However, for most of the mutants, this decrease was concomitant with a decline in the L-asparaginase activity. Using the criteria of (i) ≥60% retained L-asparaginase activity (relative to Erw-WT) and (ii) ≤5% L-glutaminase versus and L-asparaginase activity, mutants ErA-E63Q, ErA-S254P, ErA-A31I+E63Q and ErA-S254N+E63Q were selected for further study."}, "[7]": {"biological_target": "T6, Erwinia chrysanthemi L-asparaginase (ErA) variant S254P (ErA-S254P) (Dickeya chrysanthemi, UniProt P06608, S275P)", "T6 construct": "lacking the first 21-amino acid residue signal peptide; His6-SUMO (yeast Smt3p) (N, cleaved yes); made in house; host or cells: E. coli BL21(DE3) C41", "type": "biochemical", "conditions": "37° C", "experimental": "as §1, with “L-asparaginase activity was determined using a continuous spectroscopic enzyme-coupled assay as previously described (Schalk, et al. (2014) J. Biol. Chem. 289:33175-33186). In brief,” for “In brief,”\nas §4"}, "[8]": {"biological_target": "T7, Escherichia coli L-asparaginase, wild type (EcA-WT), SEQ ID NO:9 (Escherichia coli, UniProt P00805)", "T7 sequence (P00805 with tags, fused parts or gaps)": "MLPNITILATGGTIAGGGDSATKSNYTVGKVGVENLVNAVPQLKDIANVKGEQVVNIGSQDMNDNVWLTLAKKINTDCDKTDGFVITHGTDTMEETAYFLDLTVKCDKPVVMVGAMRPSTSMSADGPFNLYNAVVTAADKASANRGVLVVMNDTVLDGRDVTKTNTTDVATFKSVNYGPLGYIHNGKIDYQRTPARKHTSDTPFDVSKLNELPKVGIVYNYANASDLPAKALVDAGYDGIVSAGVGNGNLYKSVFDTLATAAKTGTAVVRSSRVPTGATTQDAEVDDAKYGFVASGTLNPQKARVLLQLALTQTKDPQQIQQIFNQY", "test": "L-asparaginase activity, continuous spectroscopic enzyme-coupled assay", "type": "biochemical", "conditions": "37° C", "experimental": "as §1, with “L-asparaginase activity was determined using a continuous spectroscopic enzyme-coupled assay as previously described (Schalk, et al. (2014) J. Biol. Chem. 289:33175-33186). In brief,” for “In brief,”\nas §2, with “enzyme. […] Therefore, the ErA enzyme was selected for developing a variant with low L-glutaminase activity.” for “enzyme.”"}, "[9]": {"biological_target": "T8, 10K PEGylated Erwinia chrysanthemi L-asparaginase (ErA) variant A31I-E63Q-S254Q-D84C (10K PEGylated-ErA-TM2-D84C) (Dickeya chrysanthemi, UniProt P06608, A52I/D105C/E84Q/S275Q)", "T8 construct": "lacking the first 21-amino acid residue signal peptide; made in house", "test": "L-asparaginase activity, comparison with ErA-TM2", "type": "biochemical", "experimental": "as §1, with “L-asparaginase activity was determined using a continuous spectroscopic enzyme-coupled assay as previously described (Schalk, et al. (2014) J. Biol. Chem. 289:33175-33186). In brief,” for “In brief,”\n(§5) The resulting […] protein was expressed, purified and PEGylated with mPEG-10K."}, "[10]": {"biological_target": "T9, Erwinia chrysanthemi L-asparaginase (ErA) variant A31I-E63Q-S254Q-D84C (ErA-TM2-D84C) (Dickeya chrysanthemi, UniProt P06608, A52I/D105C/E84Q/S275Q)", "T9 construct": "lacking the first 21-amino acid residue signal peptide; made in house", "test": "L-asparaginase activity, comparison with ErA-TM2", "type": "biochemical", "experimental": "as §1, with “L-asparaginase activity was determined using a continuous spectroscopic enzyme-coupled assay as previously described (Schalk, et al. (2014) J. Biol. Chem. 289:33175-33186). In brief,” for “In brief,”\nas §5"}, "[11]": {"test_system": "Erwinia chrysanthemi L-asparaginase (ErA) variants ErA-E63Q, ErA-DM2 (A31I-E63Q) and ErA-DM1 (E63Q-S254N)", "test": "L-asparaginase activity of the mutants as a group vs ErA-WT", "type": "biochemical", "conditions": "Asn", "experimental": "as §1, with “L-asparaginase activity was determined using a continuous spectroscopic enzyme-coupled assay as previously described (Schalk, et al. (2014) J. Biol. Chem. 289:33175-33186). In brief,” for “In brief,”\nas §4"}, "[12]": {"biological_target": "Erwinia chrysanthemi L-asparaginase (ErA) variant A31I-E63Q-S254Q (ErA-TM2), SEQ ID NO:6 (Dickeya chrysanthemi, UniProt P06608, A52I/E84Q/S275Q)", "type": "biochemical", "set-up": "lacking the first 21-amino acid residue signal peptide; His6-SUMO (yeast Smt3p) (N, cleaved yes); made in house; host or cells: E. coli BL21(DE3) C41", "experimental": "as §1, with “L-asparaginase activity was determined using a continuous spectroscopic enzyme-coupled assay as previously described (Schalk, et al. (2014) J. Biol. Chem. 289:33175-33186). In brief,” for “In brief,”\nas §3"}}, "note": "Several values for one entry are separate records, joined by “and”; a condition that tells them apart may be missing. Equal entries are not always repeated."}
{"smiles": "NC(=O)C[C@H](N)C(=O)O", "note": "[Asn, L-asparagine]", "values": [{"measurement": "kobs @20 μM", "setting": "[1]; 20 μM Asn", "result": 50.7, "unit": "s⁻¹"}, {"measurement": "kobs @50 μM", "setting": "[1]; 50 μM Asn", "result": 105.3, "unit": "s⁻¹"}, {"measurement": "kobs @20 μM", "setting": "[2]; 20 μM Asn", "result": 46.3, "unit": "s⁻¹"}, {"measurement": "kobs @50 μM", "setting": "[2]; 50 μM Asn", "result": 92.2, "unit": "s⁻¹"}, {"measurement": "Km", "setting": "[2]; Asn", "result": "48.1 µM and 50.7 µM"}, {"measurement": "kobs @20 μM", "setting": "[3]; 20 μM Asn, 37° C", "result": 18.9, "unit": "s⁻¹"}, {"measurement": "kobs @50 μM", "setting": "[3]; 50 μM Asn, 37° C", "result": 36.3, "unit": "s⁻¹"}, {"measurement": "kcat", "setting": "[3]; Asn, 37° C", "result": "169.8 ± 1.5", "unit": "s⁻¹"}, {"measurement": "increase in Asn Km", "setting": "[3]; Asn, relative to ErA-WT", "result": 4, "unit": "fold"}, {"measurement": "kobs @20 μM", "setting": "[4]; 20 μM Asn", "result": 14.2, "unit": "s⁻¹"}, {"measurement": "kobs @50 μM", "setting": "[4]; 50 μM Asn", "result": "36.3 s⁻¹ and 30.8 s⁻¹"}, {"measurement": "Km", "setting": "[4]; Asn", "result": "179 ± 5.6", "unit": "µM"}, {"measurement": "kcat", "setting": "[4]; Asn", "result": "147.3 ± 1.0", "unit": "s⁻¹"}, {"measurement": "kobs @20 μM", "setting": "[5]; 20 μM Asn", "result": 16.4, "unit": "s⁻¹"}, {"measurement": "kobs @50 μM", "setting": "[5]; 50 μM Asn", "result": 29.2, "unit": "s⁻¹"}, {"measurement": "kcat", "setting": "[5]; Asn", "result": "109.7 ± 0.8", "unit": "s⁻¹"}, {"measurement": "kobs @20 μM", "setting": "[6]; 20 μM Asn", "result": 38.8, "unit": "s⁻¹"}, {"measurement": "kobs @50 μM", "setting": "[6]; 50 μM Asn", "result": 69.7, "unit": "s⁻¹"}, {"measurement": "Km", "setting": "[6]; Asn", "result": "36.9 ± 2.2", "unit": "µM"}, {"measurement": "kcat", "setting": "[6]; Asn", "result": "123.0 ± 1.8", "unit": "s⁻¹"}, {"measurement": "kobs @20 μM", "setting": "[7]; 20 μM Asn", "result": 4.5, "unit": "s⁻¹"}, {"measurement": "kobs @50 μM", "setting": "[7]; 50 μM Asn", "result": 10.5, "unit": "s⁻¹"}, {"measurement": "Km", "setting": "[7]; Asn", "result": "1150 ± 25.5", "unit": "µM"}, {"measurement": "kcat", "setting": "[7]; Asn", "result": "250.0 ± 2.8", "unit": "s⁻¹"}, {"measurement": "kobs @20 μM", "setting": "[8]; 20 μM Asn", "result": 28.3, "unit": "s⁻¹"}, {"measurement": "kobs @50 μM", "setting": "[8]; 50 μM Asn", "result": 41.3, "unit": "s⁻¹"}, {"measurement": "kobs at 2 mM Asn", "setting": "[9]", "result": 163.4, "unit": "s⁻¹"}, {"measurement": "kobs at 2 mM Asn", "setting": "[10]", "result": 172.8, "unit": "s⁻¹"}, {"measurement": "near wild-type kcat (range, of ErA-WT)", "setting": "[11]", "result": "60-90%"}, {"measurement": "kobs @20 μM", "setting": "[12]; 20 μM Asn, 37° C", "result": 40.8, "unit": "s⁻¹"}, {"measurement": "kobs @50 μM", "setting": "[12]; 50 μM Asn, 37° C", "result": 89.1, "unit": "s⁻¹"}, {"measurement": "kobs at 2 mM Asn", "setting": "[12]; 2 mM Asn", "result": 178.8, "unit": "s⁻¹"}, {"measurement": "Km", "setting": "[12]; Asn, 37° C", "result": "95 ± 3.5", "unit": "µM"}, {"measurement": "kcat", "setting": "[12]; Asn, 37° C", "result": "261.2 ± 2.8", "unit": "s⁻¹"}]}
